Test [1] concerns the target AstaPo1 (AstaP-orange1), residues 21-223 (Coelastrella astaxanthina, UniProt S6BQ14). Put plainly: differential scanning calorimetry, holoform vs apoform. It is filed as binding. As to conditions: 20 mM Na-phosphate pH 7.0, 1 °C per min, apo Tm ~60 °C. (In general: In DSC, transitions show as peaks or steps in heat flow.)
The target in the next test is T1, AstaPo1^41–190 (Coelastrella astaxanthina, UniProt S6BQ14).
T1 construct: gene astaP; isolated FAS1 domain 41-190, N- and C-terminal regions removed, His6 cut leaving GPHM, E. coli, 16 kDa, monomer
T1 sequence (S6BQ14 entry or part of it): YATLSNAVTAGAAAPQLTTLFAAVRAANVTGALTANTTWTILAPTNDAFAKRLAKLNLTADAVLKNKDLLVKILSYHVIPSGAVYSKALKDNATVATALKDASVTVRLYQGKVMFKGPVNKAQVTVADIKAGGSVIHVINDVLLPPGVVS
Put plainly: SEC with diode-array absorbance; Trp fluorescence quenching; DSC of holoform. It is filed as binding. Conditions: holoform from ZEA-synthesizing E. coli; apoform insoluble.

AstaPo1 (AstaP-orange1), residues 21-223, sequence (S6BQ14 entry or part of it): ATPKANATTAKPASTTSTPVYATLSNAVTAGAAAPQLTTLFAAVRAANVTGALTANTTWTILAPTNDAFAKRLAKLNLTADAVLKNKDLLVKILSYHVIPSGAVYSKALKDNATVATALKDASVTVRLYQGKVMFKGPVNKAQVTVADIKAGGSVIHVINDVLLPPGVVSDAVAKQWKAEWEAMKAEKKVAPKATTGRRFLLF

Turning to `CC1=C(/C=C/C(C)=C/C=C/C(C)=C/C=C/C=C(C)/C=C/C=C(C)/C=C/C2=C(C)C[C@@H](O)CC2(C)C)C(C)(C)C[C@H](O)C1` [zeaxanthin], the Tm increase in test [1] (holoform from ZEA-synthesizing E. coli) was over 15 °C. The “SEC with diode-array absorbance; Trp fluorescence quenching; DSC of holoform” value at AstaPo1^41–190 is listed as “which confirms the direct carotenoid interaction within this domain”.

In the case of `CC1=C(/C=C/C(C)=C/C=C/C(C)=C/C=C/C=C(C)/C=C/C=C(C)/C=C/C2=C(C)C(=O)CCC2(C)C)C(C)(C)CCC1=O` [canthaxanthin], the Tm increase in test [1] (holoform from CAN-synthesizing E. coli) was over 15 °C.

For the origin of these results see publication PMC10147662, “Structural basis for the ligand promiscuity of the neofunctionalized, carotenoid-binding fasciclin domain protein AstaP” (Communications Biology, 2023).
